In patent publication US10363239B2, “Method for inhibiting growth of cancer cells” (Pain Therapeutics, Inc., priority 2013, dated 2019):
Like-named read-outs stand apart in the source and are kept apart here.

Tests used:
[1] = molecular target: FLNA pentapeptide of SEQ ID NO: 1 (Bn-VAKGL) (Homo sapiens, UniProt P21333); test: FITC-NLX-based FLNA screening assay (inhibition of FITC-naloxone binding to Bn-VAKGL on streptavidin plates); details: 10 nM FITC-NLX
[2] = tested on: mu opiate receptor (MOR); test: MOR agonist activity using [35S]GTPγS binding assay in striatal membranes; assay type: biochemical; details: for MOR agonist activity ([35S]GTPγS binding), FLNA-Binding Compound as Agonist 1 μM + BFNA: 1 μM compound + 1 μM β-funaltrexamine
Summary of the method: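 Striatal membranes (200 μg) were preincubated 5 min at 30 °C in HEPES pH 7.5 with 100 mM NaCl, 1 mM MgCl2 and 0.5 nM [35S]GTPγS, then 5 min more with 0.1–10 μM compound. Gαo was immunoprecipitated and bound radioactivity counted by scintillation.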

[3] = FLNA-binding compound 0.01 μM, read-out: Percent Binding Inhibition
[4] = FLNA-binding compound 0.1 μM, read-out: Percent Binding Inhibition
[5] = FLNA-binding compound 1 μM, read-out: Percent Binding Inhibition
[6] = Series C-2, 0.1 μM compound, relative to DAMGO
[7] = Series C-2, 0.1 μM compound, [35S]GTPγS binding to Gαo, striatal membranes
[8] = Series C-2, 1 μM compound + 1 μM β-FNA
[9] = Series C-2, 1 μM compound + β-FNA, relative to DAMGO + BFNA
[10] = Series C-2, 1 μM compound, relative to DAMGO
[11] = Series C-2, 1 μM compound, [35S]GTPγS binding to Gαo, striatal membranes
[12] = Series C-1, 0.1 μM compound, relative to DAMGO
[13] = Series C-1, 0.1 μM compound, [35S]GTPγS binding to Gαo, striatal membranes
[14] = Series C-1, 1 μM compound + 1 μM β-FNA
[15] = Series C-1, 1 μM compound + β-FNA, relative to DAMGO + BFNA
[16] = Series C-1, 1 μM compound, relative to DAMGO
[17] = Series C-1, 1 μM compound, [35S]GTPγS binding to Gαo, striatal membranes
[18] = Series B, 0.1 μM compound, relative to DAMGO
[19] = Series B, 0.1 μM compound, [35S]GTPγS binding to Gαo, striatal membranes
[20] = Series B, 1 μM compound + 1 μM β-FNA
[21] = Series B, 1 μM compound + β-FNA, relative to DAMGO + BFNA
[22] = Series B, 1 μM compound, relative to DAMGO
[23] = Series B, 1 μM compound, [35S]GTPγS binding to Gαo, striatal membranes
[24] = 0.1 μM compound relative to DAMGO
[25] = 1 μM compound + BFNA relative to DAMGO + BFNA
[26] = 1 μM compound relative to DAMGO

Question: What does the source list for `COc1ccc(S(=O)(=O)N2CCC3(CC2)NCCO3)cc1` [Compound C0026]?
Answer: inhibition at 0.01 µM [1, 3]: 42.3%; inhibition at 0.1 µM [1, 4]: 44.8%; inhibition at 1 µM [1, 5]: 49%; % DAMGO (0.1 μM) [2, 6]: 107.7%; MOR agonist activity, percent [35S]GTPγS binding at the stated compound concentration [2, 7]: 207.2%; MOR agonist activity, percent [35S]GTPγS binding at the stated compound concentration [2, 8]: 21.2%; % DAMGO + BFNA [2, 9]: 48.3%; % DAMGO (1 μM) [2, 10]: 105.6%; MOR agonist activity, percent [35S]GTPγS binding at the stated compound concentration [2, 11]: 288.4%

Question: Which inhibition at 0.01 µM [1, 3] does the source give for `COC(=O)c1ccc(S(=O)(=O)N2CCC3(CC2)OCCN3S(=O)(=O)c2ccc(C(=O)OC)cc2)cc1` [Compound C0028] here?
Answer: 32.2%

Question: And the inhibition at 0.1 µM [1, 4]?
Answer: 36.6%

Question: What about the inhibition at 1 µM [1, 5] of the same compound?
Answer: 43.3%

Question: And the “% DAMGO (0.1 μM)” value [2, 12]?
Answer: 55.6%

Question: What about the “Concentration of FLNA-Binding Compound as Agonist 0.1 μM” value [2, 13] of the same compound?
Answer: 93.9%

Question: What about the “Concentration of FLNA-Binding Compound as Agonist 1 μM + BFNA” value [2, 14] of the same compound?
Answer: 78.4%

Question: What about the “% DAMGO + BFNA” value [2, 15] of the same compound?
Answer: 472.3%

Question: What about the “% DAMGO (1 μM)” value [2, 16] of the same compound?
Answer: 60.5%

Question: What about the “Concentration of FLNA-Binding Compound as Agonist 1 μM” value [2, 17] of the same compound?
Answer: 132.4%

Question: With `COc1ccc(CCC(=O)CC2c3c(cc4c(c3OC)OCO4)CCN2C)cc1` (stereo not drawn) [Compound B0047] as the compound, how does the inhibition at 0.01 µM [1, 3] read?
Answer: 30.7%

Question: What about the inhibition at 0.1 µM [1, 4] of the same compound?
Answer: 37.6%

Question: And the inhibition at 1 µM [1, 5]?
Answer: 47.1%

Question: And the “% DAMGO (0.1 μM)” value [2, 18]?
Answer: 106.3%

Question: What about the “MOR agonist activity, percent [35S]GTPγS binding at the stated compound concentration” value (“MOR agonist activity, percent” below) [2, 19] of the same compound?
Answer: 187.8%

Question: And the “MOR agonist activity, percent” value [2, 20]?
Answer: 68.4%

Question: What about the “% DAMGO + BFNA” value [2, 21] of the same compound?
Answer: 260.1%

Question: And the “% DAMGO (1 μM)” value [2, 22]?
Answer: 92.6%

Question: And the “MOR agonist activity, percent” value [2, 23]?
Answer: 235.6%

Question: How did the inhibition at 0.01 µM ([1]; read-out: Percent Binding Inhibition, FLNA-binding compound 0.01 μM) turn out when `COc1ccc(C(=O)CC2c3c(cc4c(c3OC)OCO4)CC[N+]2(C)C)cc1C` (stereo not drawn) [Compound B0021] was run?
Answer: 32.5%

Question: What about the inhibition at 0.1 µM ([1]; read-out: Percent Binding Inhibition, FLNA-binding compound 0.1 μM) of the same compound?
Answer: 43.1%

Question: And the inhibition at 1 µM ([1]; read-out: Percent Binding Inhibition, FLNA-binding compound 1 μM)?
Answer: 47.6%

Question: And the “% DAMGO (0.1 μM)” value [2, 18]?
Answer: 75.9%

Question: What about the “MOR agonist activity, percent” value [2, 19] of the same compound?
Answer: 126.9%

Question: What about the “MOR agonist activity, percent” value [2, 20] of the same compound?
Answer: 42.9%

Question: And the “% DAMGO + BFNA” value [2, 21]?
Answer: 123.6%

Question: What about the “% DAMGO (1 μM)” value [2, 22] of the same compound?
Answer: 104.7%

Question: And the “MOR agonist activity, percent” value [2, 23]?
Answer: 256.4%

Question: What does the source list for `COc1ccc(S(=O)(=O)N2CCC3(CC2)OCCN3S(=O)(=O)c2ccc(OC)c(OC)c2)cc1OC` [Compound C0049]?
Answer: inhibition at 0.01 µM [1, 3]: 25.3%; inhibition at 0.1 µM [1, 4]: 27.9%; inhibition at 1 µM [1, 5]: 30.3%; % DAMGO (0.1 μM) [2, 12]: 73.5%; Concentration of FLNA-Binding Compound as Agonist 0.1 μM [2, 13]: 106.6%; Concentration of FLNA-Binding Compound as Agonist 1 μM + BFNA [2, 14]: 81.0%; % DAMGO + BFNA [2, 15]: 184.1%; % DAMGO (1 μM) [2, 16]: 90.1%; Concentration of FLNA-Binding Compound as Agonist 1 μM [2, 17]: 210.0%

Question: `CC1CCN(CC(O)COC2CC(C)CCC2C(C)C)CC1` (stereo not drawn) [Compound A0006] was tested. Which inhibition at 0.01 µM [1, 3] did it give?
Answer: 37.9%

Question: And the inhibition at 0.1 µM [1, 4]?
Answer: 43.5%

Question: And the inhibition at 1 µM [1, 5]?
Answer: 47.5%

Question: And the “MOR agonist activity ([35S]GTPγS binding), FLNA-Binding Compound as Agonist 0.1 μM” value ([2]; 0.1 μM compound)?
Answer: 170.0%

Question: What about the “% DAMGO (0.1 μM)” value [2, 24] of the same compound?
Answer: 113.8%

Question: And the “MOR agonist activity ([35S]GTPγS binding), FLNA-Binding Compound as Agonist 1 μM” value ([2]; 1 μM compound)?
Answer: 190.9%

Question: What about the “MOR agonist activity ([35S]GTPγS binding), FLNA-Binding Compound as Agonist 1 μM + BFNA” value [2] of the same compound?
Answer: 18.2%

Question: And the “% DAMGO + BFNA” value [2, 25]?
Answer: 68.7%

Question: What about the “% DAMGO (1 μM)” value [2, 26] of the same compound?
Answer: 82.9%

Question: How did the inhibition at 0.01 µM [1, 3] turn out when `CC(=O)N1CCSC12CCN(S(=O)(=O)c1ccc([N+](=O)[O-])cc1)CC2` [Compound C0050] was run?
Answer: 26.7%

Question: What about the inhibition at 0.1 µM [1, 4] of the same compound?
Answer: 34.5%

Question: And the inhibition at 1 µM [1, 5]?
Answer: 36.4%

Question: And the “% DAMGO (0.1 μM)” value [2, 6]?
Answer: 76.1%

Question: And the “MOR agonist activity, percent” value [2, 7]?
Answer: 110.3%

Question: And the “MOR agonist activity, percent” value [2, 8]?
Answer: 59.0%

Question: What about the “% DAMGO + BFNA” value [2, 9] of the same compound?
Answer: 134.1%

Question: And the “% DAMGO (1 μM)” value [2, 10]?
Answer: 54.8%

Question: What about the “MOR agonist activity, percent” value [2, 11] of the same compound?
Answer: 127.6%

Question: Which results are given for `CC1CN(CC(O)COc2ccccc2C(C)C)CC(C)O1` (stereo not drawn) [Compound A0029]?
Answer: inhibition at 0.01 µM [1, 3]: 44.4%; inhibition at 0.1 µM [1, 4]: 44.4%; inhibition at 1 µM [1, 5]: 50.8%; MOR agonist activity ([35S]GTPγS binding), FLNA-Binding Compound as Agonist 0.1 μM ([2]; 0.1 μM compound): 173.8%; % DAMGO (0.1 μM) [2, 24]: 98.4%; MOR agonist activity ([35S]GTPγS binding), FLNA-Binding Compound as Agonist 1 μM ([2]; 1 μM compound): 206.5%; MOR agonist activity ([35S]GTPγS binding), FLNA-Binding Compound as Agonist 1 μM + BFNA [2]: 22.3%; % DAMGO + BFNA [2, 25]: 84.8%; % DAMGO (1 μM) [2, 26]: 81.2%

Question: How did the inhibition at 0.01 µM [1, 3] turn out when `CC(=O)c1ccc(C(=O)N2CCOC23CCN(S(=O)(=O)c2ccc(C(C)=O)cc2)CC3)cc1` [Compound C0053] was run?
Answer: 28.9%

Question: And the inhibition at 0.1 µM [1, 4]?
Answer: 33.8%

Question: What about the inhibition at 1 µM [1, 5] of the same compound?
Answer: 39.3%

Question: And the “% DAMGO (0.1 μM)” value [2, 12]?
Answer: 71.7%

Question: And the “Concentration of FLNA-Binding Compound as Agonist 0.1 μM” value [2, 13]?
Answer: 104.0%

Question: What about the “Concentration of FLNA-Binding Compound as Agonist 1 μM + BFNA” value [2, 14] of the same compound?
Answer: 93.1%

Question: What about the “% DAMGO + BFNA” value [2, 15] of the same compound?
Answer: 211.6%

Question: What about the “% DAMGO (1 μM)” value [2, 16] of the same compound?
Answer: 67.5%

Question: What about the “Concentration of FLNA-Binding Compound as Agonist 1 μM” value [2, 17] of the same compound?
Answer: 157.2%
